Measurements reported in PMC8841528, “Structural Basis for Unusual TCR CDR3β Usage Against an Immunodominant HIV-1 Gag Protein Peptide Restricted to an HLA-B*81:01 Molecule” (Frontiers in Immunology, 2022).

Tested on: T18A TCR
Assay: Surface plasmon resonance (SPR) binding of T18A TCR to peptide/HLA-B*81:01 complexes
Conditions: result in words
Procedure: The SPR assays were performed as described earlier ([40]–[42]). Briefly, the protein was buffer -exchanged into PBS and biotinylated for 1h at room temperature. […] The Kd was determined by the fitting of a single-ligand binding model.

Substance | recognition of TL9 escape variant presented by HLA-B*81:01 by T18A TCR
TPsDLNTML [TL9 escape variant, Ser at position 3, presented by HLA-B*81:01] | could recognize
TPQDLNsML [TL9 escape variant, Ser at position 7, presented by HLA-B*81:01] | could recognize
